These results are taken from patent publication US11492361B2, “Compounds useful in HIV therapy” (GlaxoSmithKline Intellectual Property Development Limited, priority 2018, dated 2022).

Molecules are shown by their SMILES. pEC50: −log10 of the molar value. Structures can show the parent of a compound that is named as a salt.

The test deals with Jurkat HIV-luciferase clones. Nature of the test: Jurkat latency reversal assay. The class given is cell-based. The note with it: Homo sapiens, Jurkat, 48 h. As for the experimental part:
Jurkat HIV-luciferase clones were maintained in RPMI medium 1640 (Gibco by Life Technologies) containing 10% (vol/vol) fetal bovine serum (SAFC/Sigma-Aldrich) and 25 units/mL penicillin, 25 units/mL streptomycin (Gibco by Life Technologies), and were split 1:4 every 3 to 4 days to maintain a cell density of ˜0.3 to 1 million cells/mL. The Jurkat clones were maintained with the addition of 500 nM EFV in the medium. Three Jurkat cell clones (C16, I15, and N6), each harboring one or two integrated HIV proviruses expressing the luciferase reporter gene, were added at equal amounts for a total of 5,000 cells per well to 384-well plates containing compound titrations. Dose-response testing was performed on compounds dissolved in dimethyl sulfoxide (DMSO, Fisher Scientific, Merelbeke, Belgium) dispensed in duplicate serial 3-fold, 14-point titrations using a D300e Digital Droplet Dispenser (Hewlett-Packard) to give final assay concentrations of 10 μM to 2.1 pM in 50 μL of medium at 0.5% DMSO (vol/vol) final concentration. Cells and compound were incubated at 37° C. for 48 hours, unless otherwise indicated, followed by the addition of 20 μL of Steady-Glo® Luciferase (Promega). Luminescence resulting from the induction of the virally expressed luciferase was measured using an EnVision 2102 Multilabel Plate Reader (Perkin Elmer). Dose-response relationships were analyzed with GraphPad PRISM 6 using a four-parameter logistic regression model to calculate the concentration of compound that gives half-maximal response (EC50) and the maximal percent activation compared to the vehicle control.
Regarding `CN[C@@H](C)C(=S)N[C@H]1CCS[C@H]2CC(C)(C)[C@@H](C(=O)NC3c4ccccc4CC[C@H]3C(=O)N3CCN(C(=O)[C@@H]4CCc5ccccc5C4NC(=O)[C@H]4N5C(=O)[C@@H](NC(=S)[C@H](C)NC)CCS[C@H]5CC4(C)C)CC3)N2C1=O` (stereo in doubt) [compound 8, (4S,4′S,7S,7′S,9aS,9a′S)-N,N′-((1R,1′R,2R,2′R)-(piperazine-1,4-dicarbonyl)bis(1,2,3,4-tetrahydronaphthalene-2,1-diyl))bis(8,8-dimethyl-4-((S)-2-(methylamino)propanethioamido)-5-oxooctahydropyrrolo[2,1-b][1,3]thiazepine-7-carboxamide) dihydrochloride], the pEC50 was 8.62.
With `CN[C@@H](C)C(=O)NC1CCS[C@H]2CC(C)(C)[C@@H](C(=O)N[C@H]3c4ccccc4CC[C@H]3C(=O)NCc3ccc(CNC(=O)[C@@H]4CCc5ccccc5C4NC(=O)[C@H]4N5C(=O)[C@@H](NC(=O)[C@H](C)NC)CCS[C@H]5CC4(C)C)cc3)N2C1=O` (stereo in doubt) [compound 9, (4S,4′S,7S,7′S,9aS,9a′S)-N,N′-((1R,1′R,2R,2′R)-(((1,4-phenylenebis(methylene))bis(azanediyl))bis(carbonyl))bis(1,2,3,4-tetrahydronaphthalene-2,1-diyl))bis(8,8-dimethyl-4-((S)-2-(methylamino)propanamido)-5-oxooctahydropyrrolo[2,1-b][1,3]thiazepine-7-carboxamide) dihydrochloride], the pEC50 was 7.04.
The value for `CN[C@@H](C)C(=S)NC1CCS[C@H]2CC(C)(C)[C@@H](C(=O)N[C@H]3c4ccccc4CC[C@H]3C(=O)NCc3ccc(CNC(=O)[C@@H]4CCc5ccccc5C4NC(=O)[C@H]4N5C(=O)[C@@H](NC(=S)[C@H](C)NC)CCS[C@H]5CC4(C)C)cc3)N2C1=O` (stereo in doubt) [compound 10, (4S,4′S,7S,7′S,9aS,9a′S)-N,N′-((1R,1′R,2R,2′R)-(((1,4-phenylenebis(methylene))bis(azanediyl))bis(carbonyl))bis(1,2,3,4-tetrahydronaphthalene-2,1-diyl))bis(8,8-dimethyl-4-((S)-2-(methylamino)propanethioamido)-5-oxooctahydropyrrolo[2,1-b][1,3]thiazepine-7-carboxamide)] was 7.36; that for `CN[C@@H](C)C(=O)N[C@H]1CCS[C@H]2CC(C)(C)[C@@H](C(=O)Nc3ccc(Cc4ccc(NC(=O)[C@H]5N6C(=O)[C@@H](NC(=O)[C@H](C)NC)CCS[C@H]6CC5(C)C)cc4)cc3)N2C1=O` [compound 1, (4S,4′S,7S,7′S,9aS,9a′S)-N,N′-(methylenebis(4,1-phenylene))bis(8,8-dimethyl-4-((S)-2-(methylamino)propanamido)-5-oxooctahydropyrrolo[2,1-b][1,3]thiazepine-7-carboxamide)] was 7.33.
With `CN[C@@H](C)C(=O)N[C@H]1CCS[C@H]2CC(C)(C)[C@@H](C(=O)Nc3ccccc3CCc3ccccc3NC(=O)[C@H]3N4C(=O)[C@@H](NC(=O)[C@H](C)NC)CCS[C@H]4CC3(C)C)N2C1=O` [compound 3, (4S,4′S,7S,7′S,9aS,9a′S)-N,N′-(ethane-1,2-diylbis(2,1-phenylene))bis(8,8-dimethyl-4-((S)-2-(methylamino)propanamido)-5-oxooctahydropyrrolo[2,1-b][1,3]thiazepine-7-carboxamide) dihydrochloride], the pEC50 was 7.09.
With `CN[C@@H](C)C(=O)N[C@H]1CCS[C@H]2CC(C)(C)[C@@H](C(=O)Nc3ccc(CCc4ccc(NC(=O)[C@H]5N6C(=O)[C@@H](NC(=O)[C@H](C)NC)CCS[C@H]6CC5(C)C)cc4)cc3)N2C1=O` [compound 5, (4S,4′S,7S,7′S,9aS,9a′S)-N,N′-(ethane-1,2-diylbis(4,1-phenylene))bis(8,8-dimethyl-4-((S)-2-(methylamino)propanamido)-5-oxooctahydropyrrolo[2,1-b][1,3]thiazepine-7-carboxamide) ditrifluoroacetate], the pEC50 was 7.27.
Turning to `CN[C@@H](C)C(=S)N[C@H]1CCS[C@H]2CC(C)(C)[C@@H](C(=O)N[C@H]3c4ccccc4C[C@H]3OCC#CC#CCO[C@@H]3Cc4ccccc4[C@@H]3NC(=O)[C@H]3N4C(=O)[C@@H](NC(=S)[C@H](C)NC)CCS[C@H]4CC3(C)C)N2C1=O` [compound 15, (4S,4′S,7S,7′S,9aS,9a′S)-N,N′-((1S,1′S,2R,2′R)-(hexa-2,4-diyne-1,6-diylbis(oxy))bis(2,3-dihydro-1H-indene-2,1-diyl))bis(8,8-dimethyl-4-((S)-2-(methylamino)propanethioamido)-5-oxooctahydropyrrolo[2,1-b][1,3]thiazepine-7-carboxamide)], the pEC50 was 7.82.
For `CN[C@@H](C)C(=O)N[C@H]1CCS[C@H]2CC(C)(C)[C@@H](C(=O)N[C@H]3c4ccccc4C[C@H]3OCCCCO[C@@H]3Cc4ccccc4[C@@H]3NC(=O)[C@H]3N4C(=O)[C@@H](NC(=O)[C@H](C)NC)CCS[C@H]4CC3(C)C)N2C1=O` [compound 16, (4S,4′S,7S,7′S,9aS,9a′S)-N,N′-((1S,1′S,2R,2′R)-(butane-1,4-diylbis(oxy))bis(2,3-dihydro-1H-indene-2,1-diyl))bis(8,8-dimethyl-4-((S)-2-(methylamino)propanamido)-5-oxooctahydropyrrolo[2,1-b][1,3]thiazepine-7-carboxamide)], the pEC50 is 8.00.
Consider `CN[C@@H](C)C(=S)N[C@H]1CCS[C@H]2CC(C)(C)[C@@H](C(=O)N[C@H]3c4ccccc4C[C@H]3OCCCCO[C@@H]3Cc4ccccc4[C@@H]3NC(=O)[C@H]3N4C(=O)[C@@H](NC(=S)[C@H](C)NC)CCS[C@H]4CC3(C)C)N2C1=O` [compound 17, (4S,4′S,7S,7′S,9aS,9a′S)-N,N′-((1S,1′S,2R,2′R)-(butane-1,4-diylbis(oxy))bis(2,3-dihydro-1H-indene-2,1-diyl))bis(8,8-dimethyl-4-((S)-2-(methylamino)propanethioamido)-5-oxooctahydropyrrolo[2,1-b][1,3]thiazepine-7-carboxamide) dihydrochloride], for which the negative logarithm of the EC50 (pEC50) is 7.68.
Take `CN[C@@H](C)C(=O)N[C@H]1CCS[C@H]2CC(C)(C)[C@@H](C(=O)N[C@H]3c4ccccc4C[C@H]3OCCOCCO[C@@H]3Cc4ccccc4[C@@H]3NC(=O)[C@H]3N4C(=O)[C@@H](NC(=O)[C@H](C)NC)CCS[C@H]4CC3(C)C)N2C1=O` [compound 18, (4S,4′S,7S,7′S,9aS,9a′S)-N,N′-((1S,1′S,2R,2′R)-((oxybis(ethane-2,1-diyl))bis(oxy))bis(2,3-dihydro-1H-indene-2,1-diyl))bis(8,8-dimethyl-4-((S)-2-(methylamino)propanamido)-5-oxooctahydropyrrolo[2,1-b][1,3]thiazepine-7-carboxamide) dihydrochloride]: the pEC50 is 7.65.
The value for `CN[C@@H](C)C(=S)N[C@H]1CCS[C@H]2CC(C)(C)[C@@H](C(=O)N[C@H]3c4ccccc4C[C@H]3OCCOCCO[C@@H]3Cc4ccccc4[C@@H]3NC(=O)[C@H]3N4C(=O)[C@@H](NC(=S)[C@H](C)NC)CCS[C@H]4CC3(C)C)N2C1=O` [compound 19, (4S,4′S,7S,7′S,9aS,9a′S)-N,N′-((1S,1′S,2R,2′R)-((oxybis(ethane-2,1-diyl))bis(oxy))bis(2,3-dihydro-1H-indene-2,1-diyl))bis(8,8-dimethyl-4-((S)-2-(methylamino)propanethioamido)-5-oxooctahydropyrrolo[2,1-b][1,3]thiazepine-7-carboxamide) dihydrochloride] was 8.03.
For `CN[C@@H](C)C(=S)N[C@H]1CCS[C@H]2CC(C)(C)[C@@H](C(=O)N[C@H]3c4ccccc4C[C@H]3OCCCCCCO[C@@H]3Cc4ccccc4[C@@H]3NC(=O)[C@H]3N4C(=O)[C@@H](NC(=S)[C@H](C)NC)CCS[C@H]4CC3(C)C)N2C1=O` [compound 21, (4S,4′S,7S,7′S,9aS,9a′S)-N,N′-((1S,1′S,2R,2′R)-(hexane-1,6-diylbis(oxy))bis(2,3-dihydro-1H-indene-2,1-diyl))bis(8,8-dimethyl-4-((S)-2-(methylamino)propanethioamido)-5-oxooctahydropyrrolo[2,1-b][1,3]thiazepine-7-carboxamide)], the pEC50 was 7.89.
For `CN[C@@H](C)C(=O)N[C@H]1CCS[C@H]2CC(C)(C)[C@@H](C(=O)N[C@H]3c4ccccc4C[C@H]3OCc3ccc(CO[C@@H]4Cc5ccccc5[C@@H]4NC(=O)[C@H]4N5C(=O)[C@@H](NC(=O)[C@H](C)NC)CCS[C@H]5CC4(C)C)cc3)N2C1=O` [compound 22, (4S,4′S,7S,7′S,9aS,9a′S)-N,N′-((1S,1′S,2R,2′R)-((1,4-phenylenebis(methylene))bis(oxy))bis(2,3-dihydro-1H-indene-2,1-diyl))bis(8,8-dimethyl-4-((S)-2-(methylamino)propanamido)-5-oxooctahydropyrrolo[2,1-b][1,3]thiazepine-7-carboxamide)], the pEC50 was 8.06.

In general, pEC50 refers to the negative decadic logarithm of the EC50, by convention in mol/L.
